{"source": "PubChem BioAssay AID1963841", "about": "(Molecular Pharmacology Branch, DTP, NCI, 2024);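 further: spheroids exposed to compounds for seven days before readout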;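 on viability, T/C: 100% = DMSO vehicle control viability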", "test_system": "439559-082-T-J2-PDC spheroid viability", "assay": "Anticancer human tumor 439559-082-T-J2-PDC patient-derived colon adenocarcinoma cell line growth inhibition [POLQ]", "settings": "spheroids with HUVEC and MSC; for IC50: curve of first compound; for viability, T/C: stronger effect = lower value", "method": "Multicellular complex tumor spheroid response to Polymerase (POL) inhibitors (novobiocin, ART-558, RP6685) in combination with a variety of drugs and investigational agents in selected tumor cell lines\nThe POL inhibitors (novobiocin, ART-558, and RP6685) were evaluated both individually and in combination with standard of care and investigational anticancer small molecules within a complex spheroid model of solid tumors. . Complex spheroids include a stromal component modeled by human endothelial cells (HUVEC) and fibroblasts modeled by human mesenchymal stem cells (MSCs). The concentration ranges selected for each drug and investigational agent were based upon clinically achievable concentrations if the clinical Cmax of the agent was known.\nCompounds. The drugs and investigational agents: novobiocin (NSC847541), ART-558 (NSC835418), RP-6685 (NSC848927), peposertib (NSC802822), ceralasertib (NSC780249), elimusertib (NSC800525), camonsertib (NSC841442), AZD-1390 (NSC803789), olaparib (NSC753686), talazoparib (NSC767125), rucaparib (NSC756644), sotorasib (NSC818433), MRTX-1133 (NSC836407), SN-38 (NSC673596), topotecan (NSC609699), epotoside (NSC141540), doxorubicin (NSC123127), gemcitabine (NSC613327), 5-fluorouracil (NSC19893), paclitaxel (NSC125973), vemurafenib (NSC761431), MSA-2 (NSC828583), SN-011 (NSC837082), adavosertib (NSC754352), prexasertib (NSC758257), carboplatin (NSC241240) and oxaliplatin (NSC266046), were obtained from the National Cancer Institute (NCI) Developmental Therapeutics Program Chemical Repository (21). The FDA-approved anticancer drug set is available from the Developmental Therapeutics Program at https://dtp.cancer.gov/organization/dscb/obtaining/. […] The stock solutions were prepared in dimethyl sulfoxide (DMSO, Sigma-Aldrich, St. Louis, MO, cat. D2650), except for the platinum compounds which were prepared in saline (Quality Biological, Gaithersburg, MD, cat. 114-055-101), at 800-fold the tested concentration and stored at -70 degrees C prior to their use. All drugs and investigational agents were tested over a range starting from a high concentration at or near the clinical Cmax and decreasing in half-log increments. If the clinical Cmax for an agent had not been determined, the highest concentration tested was 10 microM, except for SN-38, which was tested at a high concentration of 1 microM.\nCell Culture. All cells were maintained in an incubator at 37 degrees C and 5% CO2 with 95% humidity. The PDC lines were cultured according to standard operating procedures established by the NCI PDMR (https://pdmr.cancer.gov). Table 3 of the manuscript, lists the cell lines along with the number of the three cell types plated to form the mct-spheroids and media for tumor cell growth. After thawing, all PDC lines, except 997537-175-T-J1-PDC and 415267-285-R-J2-PDC, were cultured in Matrigel-coated flasks prepared with a working solution of 1X Ham's F-12 nutrient mix, without supplementation (Thermo Fisher Scientific, cat. 11765054), 100 U/mL penicillin-streptomycin (Thermo Fisher Scientific, cat. 15140122), and 2.5% Matrigel (Corning Inc., Corning, NY, cat. 354248) for the first three passages. The two PDC lines 997537-175-T-J1-PDC and 415267-285-R-J2-PDC were cultured on uncoated flasks. The 857933-349-R-J2-PDC line was cultured in 6C/Colon 1B media containing advanced DMEM/F-12 (Thermo Fisher Scientific, cat. 12634028), 10 mM HEPES (Thermo Fisher Scientific, cat. 15630080), 1X GlutaMAX supplement (Thermo Fisher Scientific, cat. 35050061), 0.1 mg/mL primocin (InvivoGen, San Diego, CA, cat. ant-pm-2), 10% defined fetal bovine serum, heat inactivated (HyClone Laboratories Inc., Logan, UT, cat. SH30070.03HI), 50% L-WRN conditioned media (ATCC, cat. CRL-3276), 1.25 mM N-Acetyl-L-cysteine (Sigma-Aldrich, cat. A9165), 10 mM nicotinamide (Sigma-Aldrich, cat. N0636), 1X B-27 supplement (Thermo Fisher Scientific, cat. 17504044), 1X N-2 supplement (Thermo Fisher Scientific, cat. […]"}
{"smiles": "CC(=O)O[C@H]1C(=O)[C@@]2(C)[C@H]([C@H](OC(=O)c3ccccc3)[C@]3(O)C[C@H](OC(=O)[C@H](O)[C@@H](NC(=O)c4ccccc4)c4ccccc4)C(C)=C1C3(C)C)[C@]1(OC(C)=O)CO[C@@H]1C[C@@H]2O", "note": "+ Cc1cccc(N(C)C(=O)C2C(O)CCN2c2nc(C)cc(C(F)(F)F)c2C#N)c1", "values": [{"measurement": "IC50", "setting": "second compound 0.0316 µM", "result": 2190, "unit": "nM"}, {"measurement": "IC50", "setting": "second compound 0.1 µM", "result": 1780, "unit": "nM"}, {"measurement": "IC50", "setting": "second compound 0.316 µM", "result": 1900, "unit": "nM"}, {"measurement": "IC50", "setting": "second compound 1 µM", "result": 1710, "unit": "nM"}, {"measurement": "IC50", "setting": "second compound 3.16 µM", "result": 1430, "unit": "nM"}, {"measurement": "IC50", "setting": "second compound 10 µM", "result": 469, "unit": "nM"}, {"measurement": "viability, T/C", "setting": "second compound 0.0316 µM, first compound 0.00949 µM", "result": 77.2, "unit": "%"}, {"measurement": "viability, T/C", "setting": "second compound 0.0316 µM, first compound 0.03 µM", "result": 78.5, "unit": "%"}, {"measurement": "viability, T/C", "setting": "second compound 0.0316 µM, first compound 0.0949 µM", "result": 84.2, "unit": "%"}, {"measurement": "viability, T/C", "setting": "second compound 0.0316 µM, first compound 0.3 µM", "result": 81.3, "unit": "%"}, {"measurement": "viability, T/C", "setting": "second compound 0.0316 µM, first compound 0.949 µM", "result": 70.5, "unit": "%"}, {"measurement": "viability, T/C", "setting": "second compound 0.0316 µM, first compound 3 µM", "result": 41.5, "unit": "%"}, {"measurement": "viability, T/C", "setting": "second compound 0.1 µM, first compound 0.00949 µM", "result": 81.9, "unit": "%"}, {"measurement": "viability, T/C", "setting": "second compound 0.1 µM, first compound 0.03 µM", "result": 84.4, "unit": "%"}, {"measurement": "viability, T/C", "setting": "second compound 0.1 µM, first compound 0.0949 µM", "result": 77.4, "unit": "%"}, {"measurement": "viability, T/C", "setting": "second compound 0.1 µM, first compound 0.3 µM", "result": 72.7, "unit": "%"}, {"measurement": "viability, T/C", "setting": "second compound 0.1 µM, first compound 0.949 µM", "result": 66.4, "unit": "%"}, {"measurement": "viability, T/C", "setting": "second compound 0.1 µM, first compound 3 µM", "result": 37.8, "unit": "%"}, {"measurement": "viability, T/C", "setting": "second compound 0.316 µM, first compound 0.00949 µM", "result": 85.4, "unit": "%"}, {"measurement": "viability, T/C", "setting": "second compound 0.316 µM, first compound 0.03 µM", "result": 86.6, "unit": "%"}, {"measurement": "viability, T/C", "setting": "second compound 0.316 µM, first compound 0.0949 µM", "result": 78.5, "unit": "%"}, {"measurement": "viability, T/C", "setting": "second compound 0.316 µM, first compound 0.3 µM", "result": 74.6, "unit": "%"}, {"measurement": "viability, T/C", "setting": "second compound 0.316 µM, first compound 0.949 µM", "result": 61, "unit": "%"}, {"measurement": "viability, T/C", "setting": "second compound 0.316 µM, first compound 3 µM", "result": 42.6, "unit": "%"}, {"measurement": "viability, T/C", "setting": "second compound 1 µM, first compound 0.00949 µM", "result": 92, "unit": "%"}, {"measurement": "viability, T/C", "setting": "second compound 1 µM, first compound 0.03 µM", "result": 82, "unit": "%"}, {"measurement": "viability, T/C", "setting": "second compound 1 µM, first compound 0.0949 µM", "result": 79.4, "unit": "%"}, {"measurement": "viability, T/C", "setting": "second compound 1 µM, first compound 0.3 µM", "result": 75.2, "unit": "%"}, {"measurement": "viability, T/C", "setting": "second compound 1 µM, first compound 0.949 µM", "result": 65.2, "unit": "%"}, {"measurement": "viability, T/C", "setting": "second compound 1 µM, first compound 3 µM", "result": 36.9, "unit": "%"}, {"measurement": "viability, T/C", "setting": "second compound 3.16 µM, first compound 0.00949 µM", "result": 77.1, "unit": "%"}, {"measurement": "viability, T/C", "setting": "second compound 3.16 µM, first compound 0.03 µM", "result": 71.5, "unit": "%"}, {"measurement": "viability, T/C", "setting": "second compound 3.16 µM, first compound 0.0949 µM", "result": 74.1, "unit": "%"}, {"measurement": "viability, T/C", "setting": "second compound 3.16 µM, first compound 0.3 µM", "result": 70.4, "unit": "%"}, {"measurement": "viability, T/C", "setting": "second compound 3.16 µM, first compound 0.949 µM", "result": 55, "unit": "%"}, {"measurement": "viability, T/C", "setting": "second compound 3.16 µM, first compound 3 µM", "result": 37.4, "unit": "%"}, {"measurement": "viability, T/C", "setting": "second compound 10 µM, first compound 0.00949 µM", "result": 85.1, "unit": "%"}, {"measurement": "viability, T/C", "setting": "second compound 10 µM, first compound 0.03 µM", "result": 74.2, "unit": "%"}, {"measurement": "viability, T/C", "setting": "second compound 10 µM, first compound 0.0949 µM", "result": 74.4, "unit": "%"}, {"measurement": "viability, T/C", "setting": "second compound 10 µM, first compound 0.3 µM", "result": 51.9, "unit": "%"}, {"measurement": "viability, T/C", "setting": "second compound 10 µM, first compound 0.949 µM", "result": 44.4, "unit": "%"}, {"measurement": "viability, T/C", "setting": "second compound 10 µM, first compound 3 µM", "result": 36.8, "unit": "%"}]}
